Measured values reported in US8211849B2, “Stable antimicrobial compositions including spore, bacteria, fungi and/or enzyme” (priority 2005, dated 2012).
Like-named read-outs stand apart in the source and are kept apart here.

How the values were obtained:
bacteria = assay: Non-food contact sanitizing test, summary (organism not named); type: cell-based; settings: Table 13; composition including the named antimicrobial agent
Method: The composition produced greater than 3 log10 reduction of bacteria within a 5 minute contact time.
A summary of sanitizing efficacy in a non-food contact sanitizing test is shown below in Table 11 below. All testing was performed in 500 ppm synthetic hard water with a five minute exposure time. Microbiological testing was performed according to known methods, certain of which included EPA efficacy data requirements from DIS/TSS-10.
(§1) A summary of stability and sanitizing efficacy for these compositions including an amine antimicrobial agent is shown below in Table 13. This table also includes, for comparison, results for compositions including other types of antimicrobial agents.

[1] = Physical stability of compositions; type: physicochemical
Description: as §1

lipase = assay: Enzyme stability testing (Lipolase activity); type: biochemical; settings: Table 13; composition including the named antimicrobial agent
Method: The pH of Formula 3 was lowered to 7. Formulas 4 and 5 maintained enzyme stability at 40 C for at least 30 days. Formula 3 maintained enzyme stability at 40 C for 30 days, but dropped thereafter. Enzyme stability testing was performed according to the manufacturers specifications (e.g., Novozymes LUNA #2000-10340-01 “Manual Procedure for Determination of Lipolase Activity in Enzyme Preparations and Detergents”. )

[2] = Table 13, composition including the named antimicrobial agent

Compound	Antimicrobial Activity (bacteria)	Physical Stability [1, 2]	Enzyme Stability (lipase)	Physical Stability [1]
CCCCCCCCCC[N+](C)(C)CCCCCCCCCC.[Cl-] [Bardac 2250, didecyl dimethyl ammonium chloride]	3 log reduction	–	–	–
Cc1cc(O)cc(C)c1Cl [PCMX, Chloroxylenol, reference compound]	–	yes	–	–
Dodecyl/tetradecyloxypropyl-1,3-diaminopropane [DA 1618]	4.8 log reduction	yes	yes	–
CCCCCCCCCCCCN(CCCN)CCCN [Lonzabac 12.30, bis (3-aminopropyl)dodecylamine]	4.5 log reduction	yes	yes	–
isotridecyloxypropyl-1,3-diaminopropane [DA-17]	4 log reduction	–	yes	yes
Oc1cccc(O)c1 [Resorcinol, 1,3-benzenediol, reference compound]	–	yes	–	–
linear alkyloxypropyl amine [PA-19]	4 log reduction	yes	yes	–
cocodiaminopropane [Duomeen CD]	2.5 log reduction	yes	yes	–
O=C([O-])CNCO.[Na+] [Integra 44, Hydroxymethylglycinate]	none	yes	–	–
polyhexymethylene biguanide [Vantocil]	–	yes	–	–
